Values quoted from earlier work, collected in US20250074868A1, “POLYHYDROXYLATED PHOTOINITIATORS” (Arkema France, priority 2021, published 2025).

## CC(C)(O)C(=O)c1ccc(OCCO)cc1 [SpeedCure 2959]
  water solubility: 0.5 wt %
